The source of these data is PubChem BioAssay (NCI).

Values joined by “and” are separate entries in the source; they are usually repeats but may differ in a detail not shown here. Identical values can stand only once.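 Each compound was tested at five concentrations against cells in 96-well plates for 48 hours. GI50 is the concentration that inhibits growth by half. Definition used: TGI = concentration required for complete inhibition of growth.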

Common to all, as to test: NCI-60 cell line screen, 48 h
The test system of experiment [1] is EKVX NSCLC.
The test system of experiment [2] is HCC-2998 colon.
In experiment [3] the test system is IGROV1 ovarian.
The test system of experiment [4] is K-562 leukemia.
Experiment [5] relates to MALME-3M melanoma.
Experiment [6] concerns MDA-MB-435.
Experiment [7] concerns NCI-H522 lung.
Experiment [8] relates to SF-295 CNS.
The subject of experiment [9] is SK-OV-3 ovarian.
Experiment [10] has as its system T-47D breast.

Regarding `O=C(c1ccco1)c1nc2cc(C(F)(F)F)ccc2[n+]([O-])c1C(F)(F)F`, the GI50 was 34 µM in [1]; above 100 µM in experiment [2]; 34.9 µM in experiment [3]; 48.9 µM in experiment [4]; 33 µM in [5]; 37 µM in [6]. In addition, the GI50 in experiment [7] was 34.1 µM; in [8], 51.3 µM; in [9] it was above 100 µM; in [10], 19.2 µM. Moreover, the TGI in [1], in [2], in experiment [3], in [4], in experiment [5] and in experiment [6] was above 100 µM each time. In addition, the TGI in [7], in experiment [8], in experiment [9] and in experiment [10] was above 100 µM in each case.

`CC#CC#C/C=C1\C=CC2(OC=CC2OC(C)=O)O1` (stereo unspecified): the TGI in [1] was above 100 µM; in [2], 69.9 µM and 45.9 µM; in experiment [3], above 100 µM; in experiment [4], > 100 µM and 54.8 µM; in experiment [5], > 100 µM and 69.8 µM; in experiment [6] it was above 100 µM. The TGI in [7] was 39.2 µM and 11.1 µM; in experiment [8], above 100 µM; in experiment [9], above 100 µM; in [10], 73.9 µM. The GI50 in [7] was 14.7 µM and 5.72 µM.

Turning to `C[C@@H](Oc1cc(-n2cnc3ccc(OCC4CCN(C)CC4)cc32)sc1C(N)=O)c1ccccc1Cl`, the GI50 in experiment [1] is 0.158 µM; in [2], 0.0815 µM; in [3], 0.129 µM; in experiment [4] it was 0.0437 µM; in experiment [5], 2.93 µM; in experiment [6] it was 0.0126 µM. Besides, the GI50 in experiment [7] was 0.0382 µM; in experiment [8], 0.0853 µM; in experiment [9] it was 0.101 µM; in experiment [10], 2.86 µM. Also, the TGI in [1] was 4.96 µM; in [2] it was 3.27 µM; in experiment [3], 4.9 µM; in [4] it was 3.34 µM; in experiment [5] it was 6.95 µM; in [6], 0.0643 µM. For the same compound, the TGI in experiment [7] came out at 0.147 µM; in experiment [8], 3.31 µM; in experiment [9] it was 2.93 µM; in experiment [10], 6.3 µM.

As to `COc1ccc2c(c1)C(=O)c1c-2c(N2CCN(C(=O)CNCCN(C)C)CC2)nc2ccccc12`, the GI50 in experiment [1] is 3.87 µM; in [2], 1.37 µM; in [3], 1.11 µM; in experiment [4], 0.72 µM; in experiment [5] it was 1.96 µM; in experiment [6], 2.38 µM. Also, the GI50 is 1.76 µM in [7], 2.48 µM in [8], 14 µM in experiment [9] and 1.38 µM in experiment [10]. The TGI in experiment [1] is 15.7 µM; in experiment [2] it was 2.98 µM; in experiment [3], 2.69 µM; in experiment [4] it was above 100 µM; in experiment [5], 4.94 µM; in experiment [6], 4.98 µM. Besides, the TGI in experiment [7] was determined as 3.44 µM; in experiment [8] it was 5.34 µM; in experiment [9], 27.5 µM; in experiment [10], 3.07 µM.

As to `COc1cc(/C=C/C(=N\NC(=S)NN)c2sc(NNC(C)=O)nc2C)ccc1O`, the TGI in experiment [1], in experiment [2], in experiment [3], in experiment [4], in experiment [5] and in experiment [6] was above 100 µM throughout. Moreover, the TGI in experiment [7], in [8], in experiment [9] and in [10] was above 100 µM throughout.

`CCCCCCCCCCCC1=NC(C)(C)CN1CC(C)O` (stereo unspecified): the GI50 was 11.2 µM in experiment [1]; 1.69 µM in [2]; 1.89 µM in [3]; 1.62 µM in [4]; 5.64 µM in experiment [5]; 2.05 µM in experiment [6]. The GI50 in experiment [7] is 3.42 µM; in experiment [8], 4.36 µM; in experiment [9] it was 12.4 µM; in experiment [10], 3.27 µM. Further, the TGI worked out at 25.2 µM in [1]; 3.07 µM in [2]; 4.75 µM in experiment [3]; 3.33 µM in experiment [4]; 20.4 µM in [5]; 4.91 µM in experiment [6]. For the same compound, the TGI in experiment [7] worked out at 15.9 µM; in experiment [8], 17.8 µM; in experiment [9], 24.8 µM; in [10], 11.2 µM.

With `COc1cnc2c(c1)C(=O)c1c-2n(CCCNCCN2CCOCC2)c(=O)c2cc([N+](=O)[O-])ccc12`, the GI50 in experiment [1] was 0.446 µM; in [2], 0.303 µM; in [3], 0.422 µM; in [4] it was 0.226 µM; in experiment [5] it was 0.34 µM; in experiment [6] it was 0.42 µM. Besides, the GI50 in experiment [7] was 0.0787 µM; in experiment [8] it was 0.0735 µM; in [9], 0.142 µM; in [10], 0.11 µM. Moreover, the TGI in experiment [1] was 3.5 µM; in experiment [2] it was 1.54 µM; in experiment [3], 6.76 µM; in [4] it was 2.59 µM; in experiment [5], 2.86 µM; in [6], 15.4 µM. Also, the TGI in [7] was 1.38 µM; in experiment [8] it was 0.964 µM; in experiment [9] it was 1.62 µM; in [10], 18.1 µM.

Take `CC(C)=CC(=O)N[C@@H]1CC2CCC3C(CC[C@@]4(C)C3CC[C@@H]4C(C)N(C)C)[C@@]2(C)C[C@@H]1O` (stereo partly specified): the GI50 in experiment [1] is 3.12 µM; in experiment [2], 5.44 µM; in [3] it was 5.54 µM; in experiment [4] it was 0.849 µM; in experiment [5], 2.91 µM; in [6], 2.9 µM. Besides, the GI50 is 7.47 µM in [7], 3.45 µM in experiment [8], 10.4 µM in experiment [9] and 1.94 µM in experiment [10]. The TGI was above 100 µM in experiment [1]; 16.8 µM in experiment [2]; 25.1 µM in [3]; 8.49 µM in experiment [4]; 9.41 µM in experiment [5]; 10.1 µM in [6]. Further, the TGI was determined as 31.3 µM in experiment [7], 16.6 µM in [8], 24.6 µM in experiment [9] and 31.2 µM in [10].

Regarding `CN(C)CC1CCCCCC(Br)C1=O` (stereo unspecified), the TGI in experiment [1] is 30.8 µM; in [2], 25.7 µM; in [3], above 69.4 µM; in experiment [4], above 100 µM; in [5], 17.6 µM; in experiment [6], 34.1 µM. The TGI in experiment [7] was 8.72 µM; in experiment [8] it was above 100 µM; in experiment [9] it was above 100 µM; in experiment [10] it was above 54.6 µM.

With `Fc1cccc(Cl)c1Cn1c(-c2c(F)cccc2Cl)nc2ccccc21`, the GI50 is 13.3 µM in experiment [1]; 2.31 µM in experiment [2]; 21.9 µM in [3]; 10.1 µM in experiment [4]; 8.29 µM in [5]; 20.1 µM in [6]. The GI50 was 13.3 µM in experiment [7], 16.8 µM in experiment [8], 18.4 µM in experiment [9] and 13.9 µM in experiment [10]. Moreover, the TGI in [1] was 32.6 µM; in experiment [2], 9.87 µM; in [3], above 100 µM; in [4], above 100 µM; in [5], 24.7 µM; in experiment [6], 61.7 µM. The TGI in [7] was 44.5 µM; in [8] it was 46.8 µM; in [9] it was 44.6 µM; in [10], 62.9 µM.
